Experimental data taken from patent US8470964B2, “Peptides derived from NCAM (FGLs)” (Enkam Pharmaceuticals A/S, priority 2007, dated 2013).
“Also recorded” adds a separate entry of the source. Where no end group is shown, it is not given here.

Tests used:
[1] = test system: primary cerebellar granule rat cells (CGC); assay: Neurite outgrowth of cerebellar granule neurons; type: cell-based; settings: CGC from 7-day old Wistar rats, 24 hrs; bell-shaped dose response
Method: FIG. 2. Effects of FGLs on neurite outgrowth of early postnatal rat cerebellar neurons. CGCs were prepared from 7-day old Wistar rats and plated on uncoated eight-well Lab-Tek® chamber The peptide was added to the medium immediately after plating, and cells were maintained at 37° C., 5% CO2 for 24 hrs. CGC cultures were fixed in 4% and then immunostained against rat GAP-43. Neurite outgrowth was determined by image analysis of 200±20 neurons in each individual experiment. The length of neuronal processes per cell was estimated stereologically. The results are given as mean values±SEM from at least three independent experiments and illustrated as percentage of control values. *p<0.05 when compared with control by paired t-test.
This study investigated the effect of FGLs on neurite outgrowth of dissociated primary cerebellar granule rat cells (CGC) cultured in vitro.
Efficacy is found over a range of concentrations corresponding to that of target (FGFR) activation and follows the same bell-shaped dose-response.

[2] = test system: scopolamine induced social amnesia model in adult rats; assay: Scopolamine induced social amnesia model (SRT); type: in vivo, rat; settings: 8 mg/kg s.c. twice, 19 hours interval
Method: FIG. 7. Effects of subcutaneous administration of FGLL FGLs, and VEB1 (2 administrations with a 19 hours interval, at 8 mg/kg) on the scopolamine induced social amnesia as evaluated in the Social Recognition Test (SRT). The rats were tested with the initial trial of SRT performed 5 h after the last administration of peptide/vehicle and 30 minutes after scopolamine (0.01 mg/kg s.c.) administration. The juvenile rat was presented twice with an inter-trial interval of 15 minutes.
A—Recognition ratios (RR) of rats treated with scopolamine and vehicle (Veh) or scopolamine and one of the three peptides as detailed above. Results are shown as Mean and SEM of recognition ratio (RR). […] Comparisons of RR values to a hypothetical value 0.50 were carried out using one-sample t-test. In each experimental group data were obtained from 10 rats.
B—Cumulative investigation time (T1, in seconds) during the first trial of the SRT of rats treated with scopolamine and vehicle (Veh) or scopolamine and one of the three peptides as detailed above. Results are shown as Mean and SEM of T1. Comparison between groups were carried out by ANOVA followed by Dunnett Multiple Comparison Test. In each experimental group data were obtained from 10 rats.
FGLs was tested for efficacy in the scopolamine induced social amnesia model in adult rats (Van Kampen et al., 2004). […]

[3] = test system: rat model of (25-35) β-amyloid induced neurotoxicity; assay: (25-35) β-amyloid induced neurotoxicity, subcutaneous administration: SRT and neuropathology; type: in vivo
Method: FIG. 8. The effect of FGLs (administered subcutaneously at the stated doses), or vehicle on the development of cognitive impairment (deficit in short-term social memory) and neurodegeneration after (25-35) β-amyloid (A-β) fragment neurointoxication. Comparisons of RR values to a hypothetical value 0.50 were carried using one-sample t-test. Intergroup comparisons between A-β groups were carried out using One Way ANOVA and Newman-Keuls post-hoc test and comparison between A-β vehicle and sham-operated animals by un-paired t-test.
In the rat model of (25-35) β-amyloid induced neurotoxicity (Delobette et al., 1997; Maurice et al., 1996), (25-35) aggregated β-amyloid neurotoxin is injected intracerebroventricularly leading to progressive deterioration of short-term memory (clearly detectable using the Social Recognition Test (SRT) with a 30-minute inter-trial interval (ITI) (Kogan et al., 2000), and to neurodegeneration in cortex and hippocampus characterized by increases in amyloid burden, tau phosphorylation and micro- and macro-glia activation, as well as neuronal loss (Klementiev et al., 2007).
In this study, 3.2, 0.8, 0.2 mg/kg of FGLs or sterile PBS were administered daily by subcutaneous injection. Administration was started 7 days after i.c.v. administration of an aggregated form of the (25-35) β-amyloid peptide fragment and continued until day 28 when the rats were terminated.
The social memory performance was estimated, using the SRT 21-22 days after i.c.v. administration of the β-amyloid fragment.
A significant neuroprotective effect of FGLs was detected in both areas. The minimum effective dose of FGLs for neuroprotection was 0.8 mg/kg, in hippocampus and 0.2 mg/kg in cingulate cortex.

[4] = daily s.c. from day 7, neuropathology at day 28

With “FGLs: two identical 11 amino acid peptides (VAENQQGKSKA), forming a dimer through a linker molecule (iminodiacetic acid); peptide amide (VAENQQGKSKA-NH2; not fully specified; also: dimer of two identical peptides through iminodiacetic acid linker, attachment site not given here)” the “concentration range with neurite outgrowth promoting activity” value [1] was 5 to 25 µg/mL, the “cumulative investigation time at the first encounter (T1) versus scopolamine and vehicle” value ([2]; scopolamine 0.01 mg/kg s.c.) was “significantly longer T1 than rats treated with vehicle; also recorded: significant difference in the cumulative investigation time at the first encounter” and the “recognition ratio (RR) versus theoretical value 0.5 in scopolamine treated rats” value ([2]; test 5 h after last dose, 30 minutes after scopolamine 0.01 mg/kg s.c.) was “Significant effects against scopolamine induced social amnesia; also recorded: RR significantly different from the theoretical value of 0.5”. For the same substance, the “short-term memory deficit in SRT compared to placebo-treated rats” value ([3]; 0.8 mg/kg s.c. daily, SRT 21-22 days after i.c.v. β-amyloid) was “statistically significant reduction in the short-term memory deficit”, the “PRESENCE OF A SIGNIFICANT PEPTIDE EFFECT: SRT short-term social recognition memory” value ([3]; daily s.c. 0.2, 0.8, 3.2 mg/kg from day 7, SRT 21-22 days after i.c.v. β-amyloid) was “YES (p < 0.01)^1” and the “EFFECTIVE DOSE OR DOSE RANGE: SRT short-term social recognition memory” value ([3]; daily s.c. from day 7, SRT 21-22 days after i.c.v. β-amyloid) was 0.8 mg/kg. For the same substance, the “EFFECTIVE DOSE OR DOSE RANGE: Density Intact neurons Cingulate cortex” value [3, 4] was 0.8 mg/kg, the “EFFECTIVE DOSE OR DOSE RANGE: Density Intact neurons Hippocampus (CA3)” value [3, 4] was 0.8 mg/kg and the “EFFECTIVE DOSE OR DOSE RANGE: Density damaged neurons Cingulate cortex” value [3, 4] was 0.2 mg/kg. For the same substance, the “EFFECTIVE DOSE OR DOSE RANGE: Density damaged neurons Hippocampus (CA3)” value [3, 4] was 0.8 mg/kg, the “PRESENCE OF A SIGNIFICANT PEPTIDE EFFECT: Density Intact neurons Cingulate cortex” value [3, 4] was “Yes (p < 0.05)^3” and the “PRESENCE OF A SIGNIFICANT PEPTIDE EFFECT: Density Intact neurons Hippocampus (CA3)” value [3, 4] was “YES (P < 0.05)”. For the same substance, the “PRESENCE OF A SIGNIFICANT PEPTIDE EFFECT: Density damaged neurons Cingulate cortex” value [3, 4] was “YES (p < 0.01,”, the “PRESENCE OF A SIGNIFICANT PEPTIDE EFFECT: Density damaged neurons Hippocampus (CA3)” value [3, 4] was “YES (p < 0.05)^3” and the “minimum effective dose for neuroprotection in cingulate cortex” value ([3]; daily s.c., day 28) was 0.2 mg/kg. For the same substance, the “minimum effective dose for neuroprotection in hippocampus” value ([3]; daily s.c., day 28) was 0.8 mg/kg, the “β-amyloid burden in the cingulate cortex” value ([3]; daily s.c., day 28, large variability among animals) was “Neither the lesion, nor the peptide had significant effects; also recorded: did not reach significance” and the “minimum effective dose for neuroprotection” value ([3]; subcutaneous administration) was 0.2 mg/kg. For the same substance, the “minimum effective dose, social recognition memory deficit” value ([3]; subcutaneous administration) was 0.8 mg/kg.
